Assays:
[1] = test system: CaM/4Ca^2+; test: Combined time-resolved DEER and ssNMR: binding pathway of M13 to CaM/4Ca^2+; design: species or system Human
[2] = test system: CaM/4Ca^2+ with R1 labels at A17C–R1 and A128C–R1; settings: labelled versus unlabelled CaM/4Ca^2+; cited from earlier work

τ, conformational rearrangement of state B to state C [1]: 7 to 18 ms
τ, state A* to collapsed intermediate B [1]: 1.5 to 2.5 ms
timescale τ, state A converted to final compact complex state C ([1]; abstract): ≤ 600 μs
Sequence: KRRWKKNFIAVSAANRFKKISSSGAL [M13]
reduction of affinity for M13 by R1 labels at A17C–R1 and A128C–R1 [2]: about 2.5 fold

From paper PMC8833187 (Proceedings of the National Academy of Sciences of the …, 2022)
